From patent US4714699A, “2-tolylmorpholine derivatives and pharmaceutical compositions” (Societe Anonyme Dite: Laboratoire L. Lafon, priority 1983, dated 1987)

Legend:
[1] = from EP-A-80,940, page 13, lines 6-10; cited from earlier work
β1 = β1 effect in dogs; format: in vivo; details: intraduodenal, anesthetized dogs
overall behavior in rats = format: in vivo, male rats; details: 64 mg/kg i.p., rats
Protocol: (§1) In the following tests, CRL 40 875, in solution in distilled water, was administered intraperitoneally in a volume of 20 ml/kg to male mice and 5 ml/kg to male rats.
(§2) The toxicological and neuropsychopharmacological studies undertaken in accordance with the procedures described above for CRL 40 875 enabled the following observations to be made: […]

β2 = β2 effect in dogs; format: in vivo; details: intraduodenal, anesthetized dogs
[2] = cardiovascular study in dogs; format: in vivo
[3] = overall behavior and reactivities in mice; format: in vivo, male mice; details: mice
Protocol: as §1
Groups of three mice are observed before and then 15 minutes, 30 minutes, 1 hour, 2 hours, 3 hours and 24 hours after the administration of CRL 40 875.
(§3) In the following tests, CRL 40 897, in solution in distilled water (pH 4), was administered intraperitoneally in a volume of 20 ml/kg to male mice and in a volume of 5 ml/kg to male rats, the procedures being those given above for CRL 40 875.
as §2

[4] = neuropsychopharmacological study, overall findings; format: in vivo, mice, rats; details: weak doses where stated
Protocol: as §1, §3
(§4) In the tests undertaken, CRL 40 912, in solution in distilled water (pH 4.5), was administered intraperitoneally in a volume of 20 ml/kg to male mice and in a volume of 5 ml/kg to male rats, the procedures being those given above for CRL 40 875.
as §2

[5] = pretoxicity (LD-O, maximum non-lethal dose); format: in vivo, male mice; details: intraperitoneally, male mice
Protocol: as §1, §3, §4, §2

[6] = anesthetized dogs, intraduodenal (CRL 40 903: then intravenous)
[7] = intraduodenal, anesthetized dogs

| Compound | variation of sedative effects with dose [1] | β1 effect (β1) | sedation, reactivity to touch and muscular tonus (overall behavior in rats) | β2 effect (β2) | minimal effective dose ([2]; Canis lupus familiaris, anesthetized dogs, intraduodenal (CRL 40 903: then intravenous), read-out: dose as from which femoral flow rate is increased) | effect on blood pressure [2, 6] | effect on the hypertension induced by noradrenaline [2, 6] | femoral flow rate ([2]; as from 1 mg/kg intraduodenally, anesthetized dogs) | vasodilator property ([2]; dog, in vivo) | effect on heart beat [2, 7] | rectal and skin temperatures [2, 7] | vertebral flow rate [2, 7] | femoral flow rate after propanolol ([2]; propanolol injected at the end of the test, anesthetized dogs) | effect of propanolol on heart beat and femoral flow rate ([2]; propanolol injected at the end of the test, anesthetized dogs, intraduodenal) | hypothermia ([3]; 32 mg/kg i.p.) | duration of sedation ([3]; 128 mg/kg i.p.) | fear reaction, reactivity to touch and muscular tonus ([3]; 128 mg/kg i.p.) | sedative effects [4] | LD-O (maximum non-lethal dose) [5] |
| --- | --- | --- | --- | --- | --- | --- | --- | --- | --- | --- | --- | --- | --- | --- | --- | --- | --- | --- | --- |
| Cc1ccccc1C1CN(C)CCO1 (stereo not shown) [CRL 40 915, 2-o-tolyl-4-methylmorpholine] | no sedation at a given dose, significant sedation at the next highest dose used |  |  |  |  |  |  |  |  |  |  |  |  |  |  |  |  |  |  |
| CCN1CCOC(O)(c2cccc(C(F)(F)F)c2)C1.Cl (stereo not shown) [CRL 41 092, 2-(m-trifluoromethylphenyl)-2-hydroxy-4-ethylmorpholine hydrochloride] |  | very slightly β1^- | transistory sedation with a reduction in the reactivity to touch and the muscular tonus | very slightly β1^- and β2^- | ≥ 1 mg/kg | tends to increase the blood pressure | increases the hypertension induced by noradrenaline | greatly increases the femoral flow rate | particularly interesting as vasodilators | does not modify the heart beat | a reduction in the vertebral flow rate and also in the rectal and skin temperatures | a reduction in the vertebral flow rate | remaining above its control value | very slightly reduces the heart beat and femoral flow rate | moderate hypothermia | 0.5 h | a reduction in the fear reaction, the reactivity to touch and the muscular tonus | sedative effects | greater than 256 mg/kg |
